This passage reports IC50 results from PubChem BioAssay AID2305 (GlaxoSmithKline (GSK), 2010).

The test system of the assay is P. falciparum 3D7 growth, pLDH absorbance. The assay is described as follows: blood-stage malaria parasite growth potency – strain 3D7, dose response (AID 2305).
Consider `COC(=O)c1cccc(CNCc2ccc(-c3ccc(-c4nc5ccc(C(F)(F)F)cc5[nH]4)cc3)cc2)c1`, for which the IC50 was 300 nM.

In the case of `c1ccc2cc(CNCCCN3CCN(CCCNCc4ccc5ccccc5c4)CC3)ccc2c1`, the half-maximal inhibitory concentration (IC50) amounted to 550 nM.

Consider `CCC(C)CN1CCN(c2ccc(NC(=O)c3cccs3)cc2)C(C)C1` (stereo unspecified), for which the IC50 is 540 nM.

With `O=C(Nc1ccc(Cl)cc1)Nc1ccc2nonc2c1`, the IC50 amounted to 1100 nM.

`CCN(CC)CCN1C(=O)c2oc3ccc(Cl)cc3c(=O)c2C1c1ccc(SC)cc1` (stereo unspecified) showed a half-inhibitory concentration (IC50) of 1060 nM.

`Cn1ccnc1Sc1ncccc1[N+](=O)[O-]`: the IC50 was found to be 970 nM.

The molecule `Cc1cccc2[nH]c(-c3cccc(-c4cccc(NC(=O)c5cnccc5C(F)(F)F)c4)c3)nc12` registered a half-maximal inhibitory concentration (IC50) of 660 nM.

Turning to `Cc1cc(NC(=O)NCCN2CCC(NS(=O)(=O)c3ccc(C(F)(F)F)cc3)C2)c2ccccc2n1` (stereo unspecified), the IC50 was determined as 650 nM.

With `CC(=O)N[C@H](C(=O)Nc1cccc(-c2ccc(-c3nc4c(C)cccc4[nH]3)s2)c1)C(C)C`, the IC50 was 760 nM.

`Cc1nc(-c2cccc(Nc3nccc(NCC(O)c4cccc(C(F)(F)F)c4)n3)c2)cs1` (stereo unspecified) yielded an IC50 of 630 nM.

In turn, `CC(C)(C)NCCN(Cc1ccc(-c2ccc(C(F)(F)F)cc2)cc1)C(=O)Cn1c(CCc2cccc(F)c2F)nc(=O)c2ccccc21` came in with an IC50 of 760 nM.

With `CCCc1cc(Cc2cnc(N)nc2N)cc(CCC)c1OCCCCC(=O)O`, the IC50 came out at 200 nM.

In turn, `Cc1sc2nc(CSc3ccccc3)nc(N3CCN(CC(=O)N4CCCC4)CC3)c2c1C` gave an IC50 of 1260 nM.

For `CCCCNCc1ccc(-c2nc(CN(C(=O)Nc3cc([N+](=O)[O-])ccc3F)C3Cc4ccccc4C3)cs2)cc1`, the IC50 worked out at 1100 nM.

With `Nc1c(I)cc(C(=O)Nc2ccc3nc4c(c(N)c3c2)CCCC4)cc1I`, the IC50 is 140 nM.

On to `COc1ccc2ncc(Cl)c(CCN3CCC(NCc4ccc5c(n4)NC(=O)CS5)CC3)c2c1`, for which the IC50 turned out to be 590 nM.

In turn, `COc1c(OC)c(OC)c2ccccc2c1CCNCCCCNCCc1c(OC)c(OC)c(OC)c2ccccc12` came in with an IC50 of 610 nM.

The molecule `COc1c(C2CCN(CCCCNC(=O)c3oc(-c4ccc(Cl)cc4)cc3CO)CC2)ccc2c1CCCC2` displayed an IC50 of 370 nM.

The molecule `CN(C)CCOc1ccc(-c2cc(-c3ccncc3)c(-c3ccc(Cl)c(O)c3)o2)cc1` returned an IC50 of 210 nM.

As for `Cc1cc(CNCC2CCC(CNCCCc3ccccc3)CC2)ccc1O` (stereo unspecified), the IC50 was 870 nM.

`Cn1nc(C(=O)N2CCC(c3[nH]ncc3Cc3ccccc3)CC2)c2ccccc2c1=O`: the IC50 came out at 300 nM.

On to `CN=C(N)c1ccc(NC(=O)Nc2ccc(C(N)=NC)cc2)cc1`, for which the IC50 is 580 nM.

In the case of `Cc1ccc(S(=O)(=O)c2nc(S(=O)(=O)c3ccccc3)sc2NCC2CCCO2)cc1` (stereo unspecified), the half-inhibitory concentration (IC50) was found to be 1020 nM.

`O=C(Nc1cccc(-c2ccc(-c3nc4ccc(F)cc4[nH]3)cc2)c1)c1ccncc1` gave a concentration for half-maximal inhibition (IC50) of 280 nM.

In the case of `O=C(NCc1ccccn1)C(c1cc2ccccc2o1)N1CCN(C(c2ccccc2)c2ccccc2)CC1` (stereo unspecified), the IC50 was found to be 860 nM.

The molecule `COC(=O)CN(C(=O)/C=C/c1ccc(Cl)c(Cl)c1)C1CCC(CN2CCC(c3c[nH]c4ccccc34)CC2)CC1` (stereo unspecified) registered an IC50 of 510 nM.

The molecule `Cc1ccc(Nc2nccc(NCC(O)c3cccc(C)c3)n2)cc1` (stereo unspecified) returned an IC50 of 1020 nM.

On to `CCc1c(C)c2ccc3c(c2oc1=O)CN(CCc1ccc(F)cc1)CO3`, for which the IC50 is 1230 nM.

For the molecule `Cc1cccc2[nH]c(-c3ccc(-c4cccc(NC(=O)c5cncn5C)c4)cc3)nc12`, the 50% inhibitory concentration (IC50) turned out to be 860 nM.

In turn, `CCCCN(C(=O)c1ccccc1C)c1nnc(-c2ccccc2C)s1` registered an IC50 of 930 nM.

Regarding `COc1ccc(NC(=O)NC2CCN(c3ccnc4ccccc34)C2)cc1` (stereo unspecified), the IC50 is 870 nM.

With `COc1cc2nc(N3CCC(CNC(=O)c4ccc(OC(F)(F)F)cc4)CC3)nc(N)c2cc1OC`, the IC50 was 220 nM.

`CN1CCN(CCCN(Cc2cccc(-c3cccc(CNC4CCCC4)c3)c2)C(=O)/C=C/c2ccccc2)CC1`: the IC50 came to 780 nM.

`Cc1cc(CNCCCCCCCNCc2ccc(-c3ccccc3)cc2)ccc1O`: the IC50 was determined as 490 nM.

`CC(C)(C)CC(C)(C)c1ccc(O)c(C(=O)Nc2cccc([N+](=O)[O-])c2)c1`: the IC50 stood at 590 nM.

In turn, `CC(C)Nc1nc(NCCc2cnc[nH]2)nc(NCc2cccc3ccccc23)n1` came in with an IC50 of 1010 nM.

`CCCc1c(C(=O)NC2CCC(CN3CCC(c4c[nH]c5ccccc45)CC3)CC2)cnn1-c1c(Cl)cc(Cl)cc1Cl` (stereo unspecified) gave an IC50 of 820 nM.

`O=C(N[C@@H](Cc1ccccc1)[C@H](O)CNC1CCCCC1)c1cc(C2CCCC2)cc(N2CCCC2=O)c1`: the IC50 turned out to be 170 nM.

`O=C(/C=C/c1ccc(Cl)c(Cl)c1)Nc1cccc(CN2CCC(c3c[nH]c4ccc(O)cc34)CC2)c1` had an IC50 of 940 nM.

Molecule `Cc1cccc2[nH]c(-c3ccc(-c4ccc(CNCc5cnn(-c6ccccc6)n5)cc4)s3)nc12` had an IC50 of 720 nM.

`Fc1cc(Cl)ccc1Nc1ccnc2cc(-c3ccc(CN4CCOCC4)o3)ccc12` showed an IC50 of 640 nM.

As for `COc1ccc2nccc([C@@H](O)CN3CCC(NC(=O)C(c4cc5ccccc5o4)N4CCC(Cc5ccccc5)CC4)CC3)c2c1` (stereo partly specified), the IC50 worked out at 250 nM.

In the case of `O=c1cc(NCCC(CNCc2cc3ccccc3o2)NCc2cc(Br)cc(Br)c2)[nH]c2ccccc12` (stereo unspecified), the half-inhibitory concentration (IC50) worked out at 1210 nM.

As to `NC(N)=NC(=O)Nc1cc(Cl)c(Cl)c(Cl)c1`, the IC50 turned out to be 590 nM.

`CCOc1cc(C=Cc2nc3ccccc3c(=O)[nH]2)cc(Cl)c1O` yielded a half-inhibitory concentration (IC50) of 1180 nM.

`N=c1n(Cc2ccccc2)c2ccccc2n1CC(O)c1ccc(Cl)c(Cl)c1` (stereo unspecified) yielded an IC50 of 830 nM.

The molecule `CCCCCOc1ccc(CC(C)NCC(O)c2cccc(Cl)c2)cc1` (stereo unspecified) yielded an IC50 of 650 nM.

Take `CCNC(=O)NC1CCN(Cc2c(-c3cccs3)nc3ccccc3c2C(=O)N[C@@H](C)C2CCCCC2)CC1`: the IC50 is 90 nM.

The molecule `CCN(CC)CCNC(=O)c1ccc(NC(=O)c2oc3c(Cl)cccc3c2C)cc1` yielded a concentration for half-maximal inhibition (IC50) of 700 nM.

Turning to `COc1ccc(CNCc2ccc(-c3ccc(CNCCc4ccccc4)cn3)cc2)cn1`, the IC50 amounted to 1010 nM.

Molecule `O=C(NC(=Cc1cccc([N+](=O)[O-])c1)c1nc2ccccc2[nH]1)c1cccc(Br)c1` gave an IC50 of 620 nM.

The molecule `CO/C(=C\C=C\c1cc2cc(Cl)c(Cl)cc2[nH]1)C(=O)NCCCN1CCN(c2cccc(O)c2)CC1` showed an IC50 of 580 nM.

Take `COc1cc2nc(NCC3CCN(c4nc(N)c5cc(OC)c(OC)cc5n4)CC3)nc(N)c2cc1OC`: the IC50 was 780 nM.

The molecule `CCN(CC)c1ccc2nc(N)nc(N)c2c1` came in with a half-maximal inhibitory concentration (IC50) of 70 nM.

`CC1(C)N=C(N)N=C(N)N1OCc1nc(N)nc(Nc2ccccc2)n1` showed an IC50 of 270 nM.

`COc1cccc(C(=O)NC(c2ccccc2OC)c2cc(Cl)c3cccnc3c2O)c1` (stereo unspecified): the IC50 is 1190 nM.

Molecule `Cc1cc(C(=O)Nc2ccc(-c3ccccc3)cc2)no1` had an IC50 of 690 nM.

In turn, `CN1CCN(c2ccnc3ccc(NC(=O)Nc4cccc5c(-c6ccncc6)cccc45)cc23)CC1` came in with an IC50 of 880 nM.

For `COc1cccc(C2CCN(CCN3CCC(NC(=O)c4ccc(-c5ccc(C#N)cc5)cc4)CC3)CC2)c1`, the IC50 stood at 700 nM.

Regarding `C[C@@H](CC1CCCCC1)OC(=O)N(C)[C@@H]1CCN(C#N)C1`, the IC50 came out at 620 nM.

With `CCOC(=O)/C(=N\OC(C)(C)C(=O)NCc1ccc(O)c(O)c1)c1csc(NC(c2ccccc2)(c2ccccc2)c2ccccc2)n1`, the IC50 came out at 170 nM.

The molecule `O=C(Nc1ccc(Cn2ncc(N3CCCNCC3)c(Cl)c2=O)cc1)Nc1cccc(SC(F)(F)F)c1` yielded an IC50 of 680 nM.

Consider `Nc1nccc2ccc(-c3ccc(NC(=O)Nc4cc(C(F)(F)F)ccc4F)cc3)cc12`, for which the IC50 was 90 nM.

`COc1ccc(NC(=O)[C@H](CC(C)C)Nc2cc(C)nc(NCc3cccc(C)c3)n2)cc1` came in with a concentration for half-maximal inhibition (IC50) of 1020 nM.

In turn, `CCOP(=O)(OCC)c1ccc(OC)c(-c2ccc[nH]2)c1` gave an IC50 of 1190 nM.

In turn, `CN1CCN(c2ccc(Nc3nc(N)c4ccn(C5CCC5)c4n3)cc2)CC1` registered an IC50 of 1220 nM.

In turn, `N[C@@H](CCN1CCC(c2cccc(O)c2)CC1)Cc1ccc(F)c(F)c1` had an IC50 of 1110 nM.

For `CCCN(CCC)S(=O)(=O)c1ccc(C(=O)N2CCC(C(=O)OCC)CC2)cc1`, the IC50 came to 800 nM.

Molecule `Cc1noc(C)c1-c1cccc(CNCc2ccc(-c3cccc(-c4nc5ccc(C(F)(F)F)cc5[nH]4)c3)cc2)c1` came in with an IC50 of 560 nM.

The molecule `CCc1sc(-c2ccc(C(C)(C)C)cc2)nc1C(=O)NCCCN1CCCC1=O` showed an IC50 of 990 nM.

In turn, `Cc1ccc(/C=C/C(=O)NC2CCC(N3CCC(c4ccccc4C)CC3)CC2)cc1C` (stereo unspecified) yielded an IC50 of 810 nM.

`Clc1ccc(-c2cc(-c3csc(Nc4ccncc4)n3)on2)cc1` yielded an IC50 of 130 nM.

Molecule `Cc1ccccc1C1CCN(C2CCC(NC(=O)/C=C/c3ccc(Cl)cc3)CC2)CC1` (stereo unspecified) returned a half-maximal inhibitory concentration (IC50) of 800 nM.

`Cn1nc(-c2ccc(S(=O)(=O)N3CCC(CN4CCC(c5c[nH]c6ccccc56)CC4)CC3)s2)cc1C(F)(F)F` displayed an IC50 of 1090 nM.

As to `c1ccc2c3c(ccc2c1)Sc1c(ccc2ccccc12)N3`, the IC50 came out at 1070 nM.

For the molecule `Cc1ccc(-c2noc(=O)n2CC(=O)Nc2ccccc2-c2ccccc2)cc1`, the IC50 was found to be 810 nM.

`O=C(O)c1cccnc1Sc1ccc(Cl)cc1` yielded a half-inhibitory concentration (IC50) of 830 nM.

The molecule `Cc1cc2nc(-c3ccc(/C=C/C(=O)NC4CCN(Cc5ccccc5)CC4)cc3)[nH]c2cc1C` yielded an IC50 of 590 nM.

`Cc1ccc2nc(-c3ccc(C(=O)NC4CCN(Cc5ccccc5)CC4)s3)[nH]c2c1` registered an IC50 of 1010 nM.

`COc1cc(NC(=O)c2sc(-c3ccc(Cl)cc3)cc2NC(=O)N2CCCC2)ccc1OCCN1CCCC1` came in with an IC50 of 570 nM.

For the molecule `CC(C)Nc1cc(C(=O)N[C@@H](Cc2ccccc2)[C@H](O)CNC(C)(C)c2cccc(C(F)(F)F)c2)cc(N2CCCCS2(=O)=O)c1`, the IC50 amounted to 80 nM.

Consider `O=C(NC1CCN(CCC(NC(=O)c2ccccc2)c2ccc(Cl)c(Cl)c2)CC1)c1ccc(Cl)cc1` (stereo unspecified), for which the IC50 was 1070 nM.

Turning to `Cc1c(-c2cccc(NC(=O)C(C)(C)Oc3ccc(Cl)cc3)c2)nc2ncccn12`, the IC50 stood at 170 nM.

Regarding `CC(C)[C@@H](NC(=O)NC1CCC(CCN2[C@@H]3CC[C@H]2CC(OC(=O)C(CO)c2ccccc2)C3)CC1)C(O)(c1ccccc1)c1ccccc1` (stereo partly specified), the IC50 was 810 nM.

`COc1cc2c(cc1S(=O)(=O)c1ccc(OCc3ccc(Cl)cc3)cc1)CCN(Cc1ccc(NC(C)=O)s1)CC2` had a 50% inhibitory concentration (IC50) of 920 nM.

In turn, `Cc1ccc2nc(-c3ccccc3)cc(NN=Cc3cccnc3)c2c1` yielded an IC50 of 690 nM.

The term IC50 denotes the point on the concentration scale where inhibition reaches its midpoint. Higher therefore signals a need for much substance.
